Tests used:
MMP1 [1] = conditions: UO126 10 μM, SP600125 25 μM, SB203580 5 μM, 24 h, then PMA 100 ng/mL 24 h
Procedure: The SW1353 cells were grown at 37° C. in a humidified incubator under 5% CO2 and 95% air in the culture medium as described above. The SW1353 cells were then sub-cultured into 6-well culture plates with serum free medium at an average amount of 2×10^5 cells per well and incubated for 24 hours. Then, the SW1353 cells were treated with 10 μM UO126 (MEK1-specific inhibitor), 25 μM, SP600125 (JNK-specific inhibitor), 5 μM SB203580 (p38-specific inhibitor), or 20 μM LY294002 (PI3K kinase inhibitor), and incubated for another 24 hours. Later, the SW1353 cells were treated with 100 ng/mL PMA and again incubated for 24 hours. Finally, the SW1353 cells were under cell extraction and the cell lysate was used for further luciferase analysis and western blotting analysis.
The SW1353 cells were grown at 37° C. in a humidified incubator under 5% CO2 and 95% air in the culture medium as described above. The SW1353 cells were then sub-cultured into 24-well culture plates and cultured for 24 hours. […] Following cell extraction, the cell lysate was centrifuged at 4° C., 20000 g for 30 minutes and then transferred to a 1.5 ml-microcentrifuge tube. Then, 100 μl buffer A (0.1 mM luciferin) and 350 μl buffer B (1 M MgSO4, 1 M Hepes (pH 7.8), 0.1 M ATP) were added into the microcentrifuge tube. The luciferase activity of final mixture was measured by a luminometer for 30 seconds.

MMP1 [2] = assay: Western blotting, kinase inhibitors on MMP1 protein expression induced by PMA in SW1353 cells; type: cell-based, human; conditions: UO126 10 μM, SP600125 25 μM, 24 h, then PMA 100 ng/mL 24 h
Procedure: Western blotting analysis was carried out based on the following procedure. Cells were washed and lysed in 0.2 mL of lysis buffer (1% NP-40, 50 mM Tris-HCl, pH 7.4, 180 mM NaCl, 1 mM EDTA, 1 mM PMSF, 1 mM NaF, 10 mM Na3VO4) for 30 min at 4° C. After centrifugation at 17500 g for 15 min, the supernatants of cell lysate were collected. Protein concentrations of the samples were measured using the bicinchoninic acid (BCA) protein assay kit according to the manufacturer's protocol (Pierce, Rockford, Ill., USA). Equal amounts of protein samples of concentrated conditioned medium (100 μg) or cell lysate supernatants (50 μg) were mixed with an appropriate volume of 4×SDS sampling buffer and separated on a 8% SDS-PAGE gel. The protein bands separated on the SDS-PAGE gel were blotted onto a polyvinylidene fluoride (PVDF) membrane. The blotted PVDF membrane was washed twice and blocked in freshly prepared Tris-buffered saline (TBS) containing 0.1% Tween-20 and 7% skim milk (TBST) for 2 hours at room temperature. The PVDF membrane was then incubated with a primary antibody against MMP1 protein (Santa Cruz Biotechnology, Santa Cruz, Calif.) for 18 hours at 4° C. Horseradish peroxidase-conjugated anti-goat antibody was used as the secondary antibody. Signals were visualized by an enhanced chemiluminescence kit (Clonetech, Palo Alto, Calif., USA) followed by exposure to X-ray films. […]

luciferase activity (control group 1 fold, PMA-only group 8 fold) (MMP1 [1]): 2.6 fold
SMILES: N#CC(=C(/N)Sc1ccccc1N)/C(C#N)=C(/N)Sc1ccccc1N [UO126]
protein expression by western blotting (effect of kinase inhibitors on MMP1 protein expression induced by PMA) (MMP1 [2]): significantly reduced

From patent publication US8168596B2, “Use of cycloartane compounds for treating arthritis” (NuLiv Holding Inc., priority 2008, dated 2012)
